This note sets out measurements from patent publication US11007216B2, “Combination therapy to achieve enhanced antimicrobial activity” (International Business Machines Corporation, priority 2019, dated 2021).

This experiment deals with A. baumannii. Kind of experiment: minimum inhibitory concentration (MIC) against A. baumannii. It is filed as cell-based, Acinetobacter baumannii.

Consider Colistin, for which the MIC was 1 µg/mL. `CC(=O)OC[C@H]1O[C@@H]([S-])[C@H](OC(C)=O)[C@@H](OC(C)=O)[C@@H]1OC(C)=O.CCP(CC)CC.[Au+]` [Auranofin, (2,3,4,6-Tetra-O-acetyl-1-thio-β-D-glucopyranosato-κS^1)(triethylphosphoranylidene)gold]: the minimal inhibitory concentration (MIC) was determined as 15.6 µg/mL.
